The source made the active and inactive calls. Unless noted, the calls are words filed in the database; no cut-off is given here.
Experiments:
[1] = molecular target: Phospholipase D2 (Homo sapiens, UniProt O14939); experiment: cellular phospholipase D2 inhibition IC50 – cell-based, dose response (AID 602147); assay type: functional;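 further: cellular assay in HEK293 cells overexpressing GFP-tagged PLD2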
[2] = molecular target: Phospholipase D1 (Homo sapiens, UniProt Q13393); experiment: cellular phospholipase D1 inhibition IC50 – cell-based, dose response (AID 602151); assay type: functional;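 further: cellular PLD1 assay in Calu-1 cells stimulated with PMA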
[3] = system: HEK293; experiment: membrane integrity loss in HEK cells – cell-based, fluorescence, cytotoxicity control for IDE activator project, dose response (AID 588440); assay type: functional; conditions: Homo sapiens;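 further: cytotoxicity by LDH release measuring loss of membrane integrity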
[4] = molecular target: T1, Insulin-degrading enzyme (Homo sapiens, UniProt P14735); experiment: cellular IDE activation of Abeta substrate cleavage – fluorescence polarization, HEK cells, dose response (AID 588439); assay type: functional, cell-based
T1 sequence (P14735 whole entry): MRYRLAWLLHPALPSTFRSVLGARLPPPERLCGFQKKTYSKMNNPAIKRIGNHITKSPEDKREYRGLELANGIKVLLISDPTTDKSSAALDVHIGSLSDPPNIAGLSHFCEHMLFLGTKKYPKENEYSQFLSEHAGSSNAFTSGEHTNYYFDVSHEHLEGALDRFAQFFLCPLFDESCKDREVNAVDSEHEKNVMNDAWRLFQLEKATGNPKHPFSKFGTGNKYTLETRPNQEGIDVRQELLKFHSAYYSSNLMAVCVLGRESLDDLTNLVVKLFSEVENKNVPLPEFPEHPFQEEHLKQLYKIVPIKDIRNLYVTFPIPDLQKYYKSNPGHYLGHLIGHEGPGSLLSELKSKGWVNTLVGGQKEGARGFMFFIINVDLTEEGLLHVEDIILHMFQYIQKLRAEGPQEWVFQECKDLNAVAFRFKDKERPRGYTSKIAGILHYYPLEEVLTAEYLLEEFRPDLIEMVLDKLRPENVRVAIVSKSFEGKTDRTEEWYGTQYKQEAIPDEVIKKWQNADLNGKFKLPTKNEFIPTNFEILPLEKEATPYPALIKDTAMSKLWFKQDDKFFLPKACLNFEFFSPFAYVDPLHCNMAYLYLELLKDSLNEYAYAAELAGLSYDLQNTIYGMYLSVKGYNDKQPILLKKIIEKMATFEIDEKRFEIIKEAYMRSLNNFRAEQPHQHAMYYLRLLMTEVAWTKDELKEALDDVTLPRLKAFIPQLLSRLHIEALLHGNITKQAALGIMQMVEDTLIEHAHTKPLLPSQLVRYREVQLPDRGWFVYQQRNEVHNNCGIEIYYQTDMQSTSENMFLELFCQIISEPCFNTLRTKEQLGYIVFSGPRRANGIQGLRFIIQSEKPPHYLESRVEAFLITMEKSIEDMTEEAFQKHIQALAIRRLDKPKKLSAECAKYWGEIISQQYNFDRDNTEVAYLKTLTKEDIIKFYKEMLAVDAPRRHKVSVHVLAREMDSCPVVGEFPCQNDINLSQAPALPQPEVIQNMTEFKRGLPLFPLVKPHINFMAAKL

[5] = system: HEK293; experiment: optical interference in Abeta FP readout, dose response, artefact control for IDE activator project, biochemical, fluorescence polarization (AID 588442); assay type: functional, cell-based; conditions: Homo sapiens
[6] = molecular target: T1, Insulin-degrading enzyme; experiment: recombinant IDE activation, cell-free – biochemical, fluorescence polarization, counter-screen for IDE activator project, dose response (AID 588681)
[7] = molecular target: T2, Carboxy-terminal domain RNA polymerase II polypeptide A small phosphatase 1 (Homo sapiens, UniProt Q9GZU7); experiment: CTDSP1 inhibitors, concentration-response, biochemical, absorbance readout, ultra-high-throughput screen actives (AID 540297); assay type: functional
T2 sequence (Q9GZU7 whole entry): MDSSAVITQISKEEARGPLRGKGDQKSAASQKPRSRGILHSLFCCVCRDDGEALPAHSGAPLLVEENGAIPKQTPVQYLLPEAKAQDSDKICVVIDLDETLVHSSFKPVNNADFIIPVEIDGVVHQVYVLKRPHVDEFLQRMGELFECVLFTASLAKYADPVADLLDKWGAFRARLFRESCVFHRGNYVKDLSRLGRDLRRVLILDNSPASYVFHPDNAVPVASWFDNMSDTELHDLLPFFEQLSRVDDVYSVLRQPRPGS

[8] = molecular target: T3, Platelet-activating factor acetylhydrolase 2, cytoplasmic (Mus musculus, UniProt Q8VDG7); experiment: Late stage assay provider results from the probe development effort to identify inhibitors of PAFAH2: Fluorescence-based biochemical gel-based Activity-Based Protein Profiling (ABPP) IC50. [Related pubchem assays (depositor defined):AID492956, AID492969, AID493030]
T3 sequence (Q8VDG7 whole entry): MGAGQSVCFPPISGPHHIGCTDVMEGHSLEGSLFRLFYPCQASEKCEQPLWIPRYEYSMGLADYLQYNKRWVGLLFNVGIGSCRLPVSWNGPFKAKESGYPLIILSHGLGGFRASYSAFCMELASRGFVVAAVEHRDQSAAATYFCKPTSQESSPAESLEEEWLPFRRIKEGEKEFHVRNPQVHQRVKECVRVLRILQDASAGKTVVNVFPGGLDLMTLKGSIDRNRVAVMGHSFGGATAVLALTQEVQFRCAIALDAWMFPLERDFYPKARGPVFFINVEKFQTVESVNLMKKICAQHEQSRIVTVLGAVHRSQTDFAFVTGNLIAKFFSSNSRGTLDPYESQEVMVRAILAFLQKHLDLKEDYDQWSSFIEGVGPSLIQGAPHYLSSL

[9] = molecular target: T3, Platelet-activating factor acetylhydrolase 2, cytoplasmic; experiment: Late stage assay provider results from the probe development effort to identify inhibitors of PAFAH2: fluorescence-based cell-based gel-based Activity-Based Protein Profiling (ABPP) IC50. [Related pubchem assays (depositor defined):AID492956, AID492969, AID493030]; assay type: functional
[10] = system: HEK293; experiment: SAR Analysis of small molecule inhibitors of T-cell specific antigen receptor-induced NF-kB activation in a HEK-293T cell line using a luminescence assay. [Related pubchem assays (depositor defined):AID435003, AID435012, AID489026]; assay type: functional, cell-based; conditions: Homo sapiens
[11] = system: HEK293; experiment: HEK293T cell viability loss, resazurin readout – resazurin fluorescence, cytotoxicity control for NF-kB activator project, SAR follow-up (AID 493251); assay type: functional, cell-based; conditions: Homo sapiens
[12] = system: Jurkat; experiment: SAR Analysis of small molecule inhibitors of T-cell specific antigen receptor-induced NF-kB activation in a Jurkat cell line using a luminescence assay. [Related pubchem assays (depositor defined):AID435003, AID435012, AID465]; assay type: functional, cell-based; conditions: Homo sapiens
[13] = molecular target: T4, Dual specificity protein phosphatase 3 (Homo sapiens, UniProt P51452); experiment: VHR1 phosphatase inhibitors, primary screen, biochemical, absorbance, uHTS (AID 1654)
T4 sequence (P51452 whole entry): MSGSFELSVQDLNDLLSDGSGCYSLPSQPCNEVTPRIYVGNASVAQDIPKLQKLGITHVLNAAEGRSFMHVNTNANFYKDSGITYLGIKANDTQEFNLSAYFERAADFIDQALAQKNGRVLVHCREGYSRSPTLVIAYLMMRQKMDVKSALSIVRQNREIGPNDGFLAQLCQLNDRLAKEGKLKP

[14] = molecular target: Cysteine protease ATG4B (Homo sapiens, UniProt Q9Y4P1); assay type: functional;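 further: Fluorescence-based dose-response confirmation assay measuring inhibition of ATG4B activity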
Cysteine protease ATG4B, sequence (Q9Y4P1 whole entry): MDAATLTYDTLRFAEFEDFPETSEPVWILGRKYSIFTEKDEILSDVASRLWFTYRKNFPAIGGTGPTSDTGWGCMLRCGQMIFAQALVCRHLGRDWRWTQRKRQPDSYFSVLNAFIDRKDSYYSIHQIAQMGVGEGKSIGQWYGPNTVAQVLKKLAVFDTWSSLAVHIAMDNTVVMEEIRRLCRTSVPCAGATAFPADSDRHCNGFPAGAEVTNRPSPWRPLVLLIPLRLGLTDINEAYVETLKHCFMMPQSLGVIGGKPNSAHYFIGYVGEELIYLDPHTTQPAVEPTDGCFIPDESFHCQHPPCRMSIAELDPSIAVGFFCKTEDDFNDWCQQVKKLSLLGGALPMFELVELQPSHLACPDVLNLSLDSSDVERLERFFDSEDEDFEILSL

[15] = molecular target: T5, Rac GTPase-activating protein 1 (Homo sapiens, UniProt Q9H0H5); experiment: blockers of MgcRacGAP-driven Rac1 GTP hydrolysis – biochemical, ADP Hunter fluorescence, primary and confirmatory, confirmation (AID 624330); assay type: functional
T5 sequence (Q9H0H5 whole entry): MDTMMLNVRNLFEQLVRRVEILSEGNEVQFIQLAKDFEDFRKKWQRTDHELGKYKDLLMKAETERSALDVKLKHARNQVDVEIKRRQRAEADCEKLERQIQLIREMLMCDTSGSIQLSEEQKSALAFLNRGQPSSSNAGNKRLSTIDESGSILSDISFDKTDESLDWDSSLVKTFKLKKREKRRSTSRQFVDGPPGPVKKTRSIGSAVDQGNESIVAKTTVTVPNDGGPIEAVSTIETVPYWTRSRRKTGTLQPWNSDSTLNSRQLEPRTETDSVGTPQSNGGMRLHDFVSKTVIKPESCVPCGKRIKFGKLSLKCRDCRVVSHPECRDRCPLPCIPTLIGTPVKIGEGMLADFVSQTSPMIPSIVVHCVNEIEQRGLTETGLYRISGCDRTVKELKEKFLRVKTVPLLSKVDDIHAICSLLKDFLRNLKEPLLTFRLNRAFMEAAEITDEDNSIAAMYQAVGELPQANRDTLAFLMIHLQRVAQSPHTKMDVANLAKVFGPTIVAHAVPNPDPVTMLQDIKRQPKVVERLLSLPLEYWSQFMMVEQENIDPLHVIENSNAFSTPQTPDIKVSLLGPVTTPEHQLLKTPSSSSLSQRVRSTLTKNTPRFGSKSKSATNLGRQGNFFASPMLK

[16] = molecular target: T4, Dual specificity protein phosphatase 3; experiment: VHR1 phosphatase inhibitors, biochemical (AID 1878)
[17] = molecular target: T6, Small ubiquitin-related modifier 1 (Homo sapiens, UniProt P63165); experiment: SUMO1 protein interaction blockers, potency – biochemical, fluorescence polarization, uHTS hits, dose response (AID 624382); assay type: functional; conditions: read-out: IC50_Mean
T6 sequence (P63165 whole entry): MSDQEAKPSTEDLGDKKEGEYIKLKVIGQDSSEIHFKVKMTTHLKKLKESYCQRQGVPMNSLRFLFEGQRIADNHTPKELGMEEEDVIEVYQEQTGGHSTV

[18] = molecular target: T7, Dual specificity protein phosphatase 6 (Rattus norvegicus, UniProt Q64346); experiment: inhibition of rat DUSP6 enzyme activity – biochemical, in vitro, primary screen (AID 425)
T7 sequence (Q64346 whole entry): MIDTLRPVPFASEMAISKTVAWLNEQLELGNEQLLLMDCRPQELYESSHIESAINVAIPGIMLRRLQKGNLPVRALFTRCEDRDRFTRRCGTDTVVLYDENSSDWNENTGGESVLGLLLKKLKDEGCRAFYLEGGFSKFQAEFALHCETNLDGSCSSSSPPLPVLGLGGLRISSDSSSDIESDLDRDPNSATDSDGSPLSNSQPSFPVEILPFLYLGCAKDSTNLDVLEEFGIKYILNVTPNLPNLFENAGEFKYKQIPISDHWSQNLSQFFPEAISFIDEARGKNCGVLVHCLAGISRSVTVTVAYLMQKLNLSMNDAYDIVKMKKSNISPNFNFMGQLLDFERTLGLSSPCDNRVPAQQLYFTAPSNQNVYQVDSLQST

[19] = molecular target: Multidrug resistance protein CDR2 (Candida albicans (strain SC5314 / ATCC MYA-2876) (Yeast), UniProt P78595); experiment: inhibition of Nile Red efflux via Candida CDR2 – S. cerevisiae AD1-8u, singleplex, Cherry Pick1 hits, dose response (AID 588604); assay type: functional
[20] = molecular target: Beta-adrenergic receptor kinase 1 (Homo sapiens, UniProt P25098); experiment: aptamer displacement from bead-bound GRK2 – biochemical, cherry pick 1, bead flow cytometry, dose response (AID 504500)
[21] = molecular target: Phospholipase A2 (Homo sapiens, UniProt P04054); assay type: functional;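 further: confirmatory dose-response counterscreen on phospholipase A2, testing hits that came from an ultra-high-throughput screen for ATG4B inhibitors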
Phospholipase A2, sequence (P04054 whole entry): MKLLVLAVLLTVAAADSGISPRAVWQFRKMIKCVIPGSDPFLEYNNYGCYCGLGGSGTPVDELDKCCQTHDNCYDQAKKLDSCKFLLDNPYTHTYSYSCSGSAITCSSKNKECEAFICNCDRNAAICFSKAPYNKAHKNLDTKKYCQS

[22] = molecular target: T8, Short transient receptor potential channel 4 (Mus musculus, UniProt Q9QUQ5); experiment: calcium entry via TRPC4 opening agents – cell-based, HEK293 TRPC4/mu-opioid, Fluo-4 calcium, dose response (AID 434937); assay type: functional
T8 sequence (Q9QUQ5 whole entry): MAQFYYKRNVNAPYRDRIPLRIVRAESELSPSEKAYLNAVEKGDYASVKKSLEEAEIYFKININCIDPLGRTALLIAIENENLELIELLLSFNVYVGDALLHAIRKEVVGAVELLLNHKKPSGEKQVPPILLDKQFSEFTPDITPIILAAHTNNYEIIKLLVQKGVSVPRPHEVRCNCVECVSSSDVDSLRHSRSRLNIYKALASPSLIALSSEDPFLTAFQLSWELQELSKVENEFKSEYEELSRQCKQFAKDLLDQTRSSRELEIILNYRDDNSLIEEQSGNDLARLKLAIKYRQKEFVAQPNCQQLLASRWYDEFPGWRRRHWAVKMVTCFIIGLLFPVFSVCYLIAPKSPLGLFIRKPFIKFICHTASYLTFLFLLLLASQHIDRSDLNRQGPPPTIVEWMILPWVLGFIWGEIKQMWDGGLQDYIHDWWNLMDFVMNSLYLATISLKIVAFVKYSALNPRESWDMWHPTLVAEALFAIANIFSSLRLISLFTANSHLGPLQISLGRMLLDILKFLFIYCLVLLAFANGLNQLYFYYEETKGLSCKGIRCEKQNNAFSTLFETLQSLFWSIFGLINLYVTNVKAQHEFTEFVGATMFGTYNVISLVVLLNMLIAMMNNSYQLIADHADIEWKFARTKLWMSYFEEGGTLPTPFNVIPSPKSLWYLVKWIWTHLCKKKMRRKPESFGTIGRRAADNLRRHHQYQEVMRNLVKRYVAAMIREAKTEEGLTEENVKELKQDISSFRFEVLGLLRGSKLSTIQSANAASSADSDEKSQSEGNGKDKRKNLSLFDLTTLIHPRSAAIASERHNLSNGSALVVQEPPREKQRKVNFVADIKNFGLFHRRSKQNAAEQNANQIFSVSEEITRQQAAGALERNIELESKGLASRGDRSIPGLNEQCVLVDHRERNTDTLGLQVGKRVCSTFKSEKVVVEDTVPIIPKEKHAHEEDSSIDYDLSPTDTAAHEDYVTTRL

[23] = molecular target: Dual specificity tyrosine-phosphorylation-regulated kinase 1A (Rattus norvegicus, UniProt Q63470); assay type: biochemical, Homo sapiens
[24] = molecular target: T6, Small ubiquitin-related modifier 1; experiment: SUMO1 protein-protein binding blockers, potency – biochemical, FRET, dose response (AID 624383); assay type: functional; conditions: read-out: IC50_Mean
[25] = molecular target: Multidrug resistance protein CDR1 (Candida albicans, UniProt P43071); experiment: inhibition of Nile Red efflux via Candida CDR1 – S. cerevisiae AD1-8u, singleplex, Cherry Pick1 hits, dose response (AID 588606); assay type: functional
[26] = activation of human KCNQ1/KCNE1 current – automated patch clamp, CHO cells, selectivity assay for KCNQ2 activator project, dose response (AID 493042); assay type: functional
[27] = molecular target: Potassium voltage-gated channel subfamily KQT member 2 (Rattus norvegicus, UniProt O88943); experiment: Mode of action assay-Dose response assay for compounds that activate KCNQ2 potassium channels on automated patch clamp. [Related pubchem assays (depositor defined):AID2239, AID2258, AID2287, AID493113]; assay type: functional
Potassium voltage-gated channel subfamily KQT member 2, sequence (O88943 whole entry): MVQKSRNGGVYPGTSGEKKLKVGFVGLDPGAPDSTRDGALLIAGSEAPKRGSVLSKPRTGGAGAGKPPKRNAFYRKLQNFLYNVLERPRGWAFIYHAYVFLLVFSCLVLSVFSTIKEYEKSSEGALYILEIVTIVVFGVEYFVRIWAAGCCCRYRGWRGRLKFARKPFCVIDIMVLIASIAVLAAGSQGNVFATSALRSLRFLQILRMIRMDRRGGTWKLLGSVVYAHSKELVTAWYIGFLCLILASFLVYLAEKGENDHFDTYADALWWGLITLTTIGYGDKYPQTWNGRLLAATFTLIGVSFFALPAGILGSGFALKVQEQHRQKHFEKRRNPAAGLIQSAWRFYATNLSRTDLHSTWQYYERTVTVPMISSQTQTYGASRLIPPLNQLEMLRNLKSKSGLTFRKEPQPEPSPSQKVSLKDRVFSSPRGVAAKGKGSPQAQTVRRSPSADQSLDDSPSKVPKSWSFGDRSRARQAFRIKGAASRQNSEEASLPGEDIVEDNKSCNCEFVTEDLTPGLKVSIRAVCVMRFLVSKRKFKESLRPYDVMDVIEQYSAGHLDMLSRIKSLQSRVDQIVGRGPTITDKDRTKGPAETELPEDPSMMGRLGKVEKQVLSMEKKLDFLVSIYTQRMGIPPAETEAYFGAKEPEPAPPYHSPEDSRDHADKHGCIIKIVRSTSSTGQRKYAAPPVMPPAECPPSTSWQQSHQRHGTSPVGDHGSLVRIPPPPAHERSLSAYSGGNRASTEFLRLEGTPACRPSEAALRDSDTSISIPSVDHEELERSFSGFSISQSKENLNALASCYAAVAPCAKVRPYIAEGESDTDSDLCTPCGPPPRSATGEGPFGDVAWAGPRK

[28] = molecular target: T9, Potassium voltage-gated channel subfamily KQT member 4 (Homo sapiens, UniProt P56696); experiment: KCNQ4 thallium flux concentration-response – KCNQ4-expressing cells, selectivity assay for KCNQ2 activator project, dose response (AID 504416); assay type: functional, cell-based
T9 sequence (P56696 whole entry): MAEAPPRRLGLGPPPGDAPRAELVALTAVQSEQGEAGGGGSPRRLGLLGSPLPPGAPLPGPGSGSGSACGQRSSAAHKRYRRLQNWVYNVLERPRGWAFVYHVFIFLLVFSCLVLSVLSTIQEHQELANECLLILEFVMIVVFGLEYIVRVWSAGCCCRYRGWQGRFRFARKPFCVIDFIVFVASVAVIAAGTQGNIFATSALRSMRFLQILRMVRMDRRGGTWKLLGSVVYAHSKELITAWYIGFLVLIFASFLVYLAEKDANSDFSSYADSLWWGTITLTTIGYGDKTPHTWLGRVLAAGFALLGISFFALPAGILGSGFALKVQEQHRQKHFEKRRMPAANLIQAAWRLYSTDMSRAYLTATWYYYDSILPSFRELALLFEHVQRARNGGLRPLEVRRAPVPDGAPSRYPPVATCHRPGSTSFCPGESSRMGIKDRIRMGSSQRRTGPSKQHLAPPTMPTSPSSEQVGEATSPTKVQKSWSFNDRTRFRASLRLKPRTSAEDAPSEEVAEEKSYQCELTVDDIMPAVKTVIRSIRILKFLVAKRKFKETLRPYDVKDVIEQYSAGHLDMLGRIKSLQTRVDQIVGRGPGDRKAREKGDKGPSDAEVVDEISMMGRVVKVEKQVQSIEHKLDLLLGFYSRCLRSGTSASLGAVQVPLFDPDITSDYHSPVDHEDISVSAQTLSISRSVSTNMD

[29] = molecular target: Potassium voltage-gated channel subfamily KQT member 2/member 3 (Rattus norvegicus, UniProt O88943+O88944); experiment: Mode of action assay-Dose response assay for KCNQ2 activators in the KCNQ2/KCNQ3 co-expressing cells on automated patch clamp. [Related pubchem assays (depositor defined):AID2239, AID2258, AID2287]; assay type: functional
[30] = molecular target: T9, Potassium voltage-gated channel subfamily KQT member 4; experiment: activation of KCNQ4 potassium current – automated patch clamp, CHO cells, selectivity assay for KCNQ2 activator project, dose response (AID 493043); assay type: functional, cell-based
[31] = KCNQ1 potentiation selectivity check – automated patch clamp, KCNQ1-CHO cells, selectivity assay for KCNQ2 activator project, dose response (AID 493044); assay type: functional, cell-based

Phospholipase D2, sequence (O14939 whole entry): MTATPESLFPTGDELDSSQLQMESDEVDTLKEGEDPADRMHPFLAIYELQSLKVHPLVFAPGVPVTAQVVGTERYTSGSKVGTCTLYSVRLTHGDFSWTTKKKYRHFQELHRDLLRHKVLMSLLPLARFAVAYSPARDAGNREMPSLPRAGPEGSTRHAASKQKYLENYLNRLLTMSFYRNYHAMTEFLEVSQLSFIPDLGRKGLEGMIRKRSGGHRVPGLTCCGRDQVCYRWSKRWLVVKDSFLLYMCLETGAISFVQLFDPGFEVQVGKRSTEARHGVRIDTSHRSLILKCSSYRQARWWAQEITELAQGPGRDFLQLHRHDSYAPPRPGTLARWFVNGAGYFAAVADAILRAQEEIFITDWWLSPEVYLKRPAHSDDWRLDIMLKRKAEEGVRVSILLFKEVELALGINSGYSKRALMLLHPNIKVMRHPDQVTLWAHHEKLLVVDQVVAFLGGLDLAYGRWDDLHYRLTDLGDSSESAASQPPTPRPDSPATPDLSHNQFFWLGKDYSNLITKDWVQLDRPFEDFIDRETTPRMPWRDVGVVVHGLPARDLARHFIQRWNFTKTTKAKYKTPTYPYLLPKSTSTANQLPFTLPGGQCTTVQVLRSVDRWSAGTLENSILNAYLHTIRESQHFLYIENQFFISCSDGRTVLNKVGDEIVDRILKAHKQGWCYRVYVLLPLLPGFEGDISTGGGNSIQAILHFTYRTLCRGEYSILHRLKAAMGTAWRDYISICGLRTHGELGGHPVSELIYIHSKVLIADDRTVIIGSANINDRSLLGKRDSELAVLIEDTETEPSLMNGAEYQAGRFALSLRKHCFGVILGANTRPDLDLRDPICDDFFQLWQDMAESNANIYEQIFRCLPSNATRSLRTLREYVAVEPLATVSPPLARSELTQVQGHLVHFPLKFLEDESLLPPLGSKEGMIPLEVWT

## Cc1ccc(C(=O)N[C@@H](C)CN2CCC(n3c(=O)[nH]c4c(F)cccc43)CC2)cc1
[1]
  IC50: 20 µM (active)
[2]
  IC50: 0.222 µM (active)

## O=C(N/N=C/c1cn(-c2ccccc2)nc1-c1ccc2c(c1)OCCO2)c1ccncc1
[3]
  IC50: 29.2 µM (inactive)
[4]
  EC50: > 54.7 µM (inactive)
[5]
  EC50: > 54.7 µM (inactive)
[6]
  EC50: > 54.7 µM (inactive)
[7]
  IC50: 6.51 µM (active)

## O=C(N1CCCC1)n1ncc(-c2ccc(-c3ccccc3)cc2)n1
[8]
  IC50: 0.003 µM (active)
[9]
  IC50: 170 µM (active)

## COc1ccc(C(NC(=O)c2ccccc2)c2ccc3cccnc3c2O)cc1 (stereo unspecified)
[10]
  IC50: 23.2 µM (inactive)
[11]
  IC50: 6.26 µM (active)
[12]
  IC50: 2.67 µM (active)

## O=C(O)c1ccc(-c2ccc(/C=c3/sc4nc5ccccc5n4c3=O)o2)cc1Cl
[13]
  IC50: 5.86 µM (active)
[14]
  IC50: 12.2 µM (active)
[15]
  IC50: 48.4 µM (active)
[16]
  IC50: 2.89 µM (active)
[17]
  IC50: > 66.6 µM (inactive)
[18]
  IC50: 123 µM (not active)
[19]
  EC50: 20.3 µM (active)
[20]
  EC50: 9.71 µM (inactive)
[21]
  IC50: 21.9 µM (inactive)
[22]
  EC50: 5.96 µM (active)
[23]
  AC50: 2 µM (active)
[24]
  IC50: 11.5 µM (active)
[25]
  EC50: 12.2 µM (active)

## Cc1ccc(C)c(NC(=O)C2CC3CCC2C3)c1 (stereo unspecified)
[26]
  EC50: 2.68 µM (active)
[27]
  EC50: 0.402 µM (active)
[28]
  EC50: 2.64 µM (active)
[29]
  EC50: 0.396 µM (active)
[30]
  EC50: 1.63 µM (active)
[31]
  EC50: 5.03 µM (active)

Source: ChEMBL document CHEMBL1201862, “PubChem BioAssay data set” (2004)
